Measured values taken from US7189720B2 (H. Lundbeck A/S, priority 1999, dated 2007).
Where two headings read alike, the source gives them in different places.

Target: T1, human Y5 receptor (Homo sapiens, UniProt Q15761)
T1 construct: expressed in transfected cells; host or cells: mouse fibroblast LM(tk-) cells, e.g. L-hY5-7 (ATCC CRL-11995)
T1 sequence (Q15761 1-445): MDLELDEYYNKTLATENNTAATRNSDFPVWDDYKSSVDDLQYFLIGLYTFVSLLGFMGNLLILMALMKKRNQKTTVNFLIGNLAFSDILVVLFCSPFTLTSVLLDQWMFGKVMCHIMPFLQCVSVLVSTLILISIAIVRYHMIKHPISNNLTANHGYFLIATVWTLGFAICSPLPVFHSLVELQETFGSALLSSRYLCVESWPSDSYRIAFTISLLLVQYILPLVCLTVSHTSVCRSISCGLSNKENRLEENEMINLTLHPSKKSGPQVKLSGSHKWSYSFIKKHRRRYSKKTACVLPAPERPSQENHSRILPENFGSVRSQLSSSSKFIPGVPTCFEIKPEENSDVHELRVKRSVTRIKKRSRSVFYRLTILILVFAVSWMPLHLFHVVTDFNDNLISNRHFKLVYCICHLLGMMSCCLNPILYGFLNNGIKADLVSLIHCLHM
Assay: Radioligand binding to membranes, cloned human Y5 receptor

[1] = Table 2, read-out: Ki (nM) hNPY-5
[2] = Table 5, read-out: Ki, nM hNPY-5
[3] = Table 3, read-out: Ki (nM) hNPY-5
[4] = Table 6, read-out: Ki, nM hNPY-5

Description: Binding of the compounds of the present invention to human Y1, Y2, Y4, and Y5 receptors was evaluated using stably transfected 293 or LM(tk-) cells as described above.
Membranes were harvested from COS-7 cells 48 hours after transient transfection. Adherent cells were washed twice in ice-cold phosphate buffered saline (138 mM NaCl, 8.1 mM Na2HPO4, 2.5 mM KCl, 1.2 mM KH2PO4, 0.9 mM CaCl2, 0.5 mM MgCl2, pH 7.4) and lysed by sonication in ice-cold sonication buffer (20 mM Tris-HCl, 5 mM EDTA, pH 7.7). Large particles and debris were cleared by low speed centrifugation (200×g, 5 min, 4° C.). Membranes were collected from the supernatant fraction by centrifugation (32,000×g, 18 min, 4° C.), washed with ice-cold hypotonic buffer, and collected again by centrifugation (32,000×g, 18 min, 4° C.). The final membrane pellet was resuspended by sonication into a small volume of ice-cold binding buffer (˜1 ml for every 5 plates: 10 mM NaCl, 20 mM HEPES, 0.22 mM KH2PO4, 1.26 mM CaCl2, 0.81 mM MgSO4, pH 7.4). Protein concentration was measured by the Bradford method (Bradford, 1976) using Bio-Rad Reagent, with bovine serum albumin as a standard. Membranes were held on ice for up to one hour and used fresh, or flash-frozen and stored in liquid nitrogen.
Membranes were prepared similarly from 293, LM(tk-), and NIH-3T3 cells.
Membrane suspensions were diluted in binding buffer supplemented with 0.1% bovine serum albumin to yield an optimal membrane protein concentration so that ^125I-PYY (or alternative radioligand such as ^125I-NPY, ^125I-NYY3-36, or ^125I-[Leu^31Pro^34]PYY) bound by membranes in the assay was less than 10% of ^125I-PYY (or alternative radioligand) delivered to the sample (100,000 dpm/sample=0.08 nM for competition binding assays). ^125I-PYY (or alternative radioligand) and peptide competitors were also diluted to desired concentrations in supplemented binding buffer. Individual samples were then prepared in 96-well polypropylene microtiter plates by mixing ^125I-PYY (25 μL) (or alternative radioligand), competing peptides or supplemented binding buffer (25 μL), and finally, membrane suspensions (200 μL). Samples were incubated in a 30° C. water bath with constant shaking for 120 min. Incubations were terminated by filtration over Whatman GF/C filters (pre-coated with 1% polyethyleneimine and air-dried before use), followed by washing with 5 mL of ice-cold binding buffer. Filter-trapped membranes were impregnated with MeltiLex solid scintillant (Wallac, Turku, Finland) and counted for ^125I in a Wallac Beta-Plate Reader. Alternatively, incubations were carried out in GF/C filter plates (pre-coated with 1% polyethyleneimine and air-dried before use), followed by vacuum filtration and three washes of 300 μL of ice-cold binding buffer. 50 μL of UltimaGold (Packard) scintillant were added and counted for ^125I, in a Wallac MicroBeta Trilux. Non-specific binding was defined by 300 nM human NPY for all receptors except the Y4 subtypes; 100 nM human PP was used for the human Y4 and 100 nM rat PP for the rat Y4.

## CCNc1nc(NCC)nc(NCC2CCC(CNS(=O)(=O)c3cccc4cccnc34)CC2)n1 (centres unmarked) [Example 41, N8-[4-([4,6-di(ethylamino)-1,3,5-triazin-2-yl]aminomethyl)cyclohexyl]methyl-8-quinolinesulfonamide]
[1]
  Ki: 13 nM

## O=S(=O)(NCCCCCNc1nc(-c2nccs2)cs1)c1ccc(F)cc1 [Example 95, N1-(5-[4-(1,3-Thiazol-2-yl)-1,3-thiazol-2-yl]aminopentyl)-4-fluoro-1-benzenesulfonamide]
[2]
  Ki: 179 nM

## COc1ccc(S(=O)(=O)NCCCCCNc2nc(-c3ccccn3)cs2)cc1 [Example 62, 2-(5-(4-Methoxyphenyl)sulfonylamino)pentylamino-4-(2-pyridyl)thiazole hydrogen chloride]
[2]
  Ki: 33 nM

## O=S(=O)(N[C@H]1CC[C@H](CNc2nc(-c3cccnc3)cs2)CC1)c1ccccc1F [Example 86, trans-2-(4-(2-Fluorophenyl)sulfonylamino)cyclohexylmethyl-amino-4-(3-pyridyl)thiazole dihydrogen chloride]
[2]
  Ki: 12.3 nM

## COCCN(C=O)[C@H]1CC[C@H](CNc2nc(-c3nc(C)sc3C)cs2)CC1 [Example 101, trans-N-[4-([4-(2,5-Dimethyl-1,3-thiazol-4-yl)-1,3-thiazol-2-yl]aminomethyl)cyclohexyl]-N-(2-methoxyethyl)formamide]
[2]
  Ki: 407 nM

## CC(C)Nc1nc(NCC2CCC(CNS(=O)(=O)N3CCCC3)CC2)nc(N2CCCC2)n1 (centres unmarked) [Example 43, N1-[4-([4-(isopropylamino)-6-tetrahydro-1H-1-pyrrolyl-1,3,5-triazin-2-yl]aminomethyl)cyclohexyl]methyl-1-pyrrolidinesulfonamide]
[3]
  Ki: 43 nM

## CCS(=O)(=O)NCCCCCCNc1nc2c(s1)CCSc1ccccc1-2 [Example 105, N1-[6-(4,5-Dihydrobenzo[2,3]thiepino[4,5-d][1,3]thiazol-2-ylamino)hexyl]-1-ethanesulfonamide]
[4]
  Ki: 5.4 nM

## O=S(=O)(Cc1ccccc1)NCCCCCNc1nc2c(s1)CCSc1ccccc1-2 [Example 133, N-[5-(4,5-dihydrobenzo[2,3]thiepino[4,5-d][1,3]thiazol-2-ylamino)pentyl]phenyl-methanesulfonamide]
[4]
  Ki: 38 nM

## CC(C)N(C=O)[C@H]1CC[C@H](CNc2nc3c(s2)CCSc2ccc(F)cc2-3)CC1 [Example 166, N-(4-[(9-Fluoro-4,5-dihydrobenzo[2,3]thiepino[4,5-d][1,3]thiazol-2-yl)amino]methylcyclohexyl)-N-isopropylformamide]
[4]
  Ki: 6 nM

## CCNc1nc(NCC)nc(NCC2CCC(CNS(=O)(=O)c3ccc(C)cc3)CC2)n1 (centres unmarked) [Example 39, N1-[4-([4,6-di(ethylamino)-1,3,5-triazin-2-yl]aminomethyl)cyclohexyl]methyl-4-methyl-1-benzenesulfonamide]
[1]
  Ki: 28 nM

## CCN(C)c1nc(NCC2CCC(CNS(=O)(=O)c3cccc4ccccc34)CC2)nc(NC(C)C)n1 (centres unmarked) [Example 18, N1-[4-([4-[ethyl(methyl)amino]-6-(isopropylamino)-1,3,5-triazin-2-yl]aminomethyl)cyclohexyl]methyl-1-naphthalenesulfonamide]
Table 1, read-out: Ki (nM) hNPY-5
  Ki: 32 nM

## CN(C)S(=O)(=O)NCC1CCC(CNc2nc(Cl)nc(Cl)n2)CC1 (centres unmarked) [Example 53, N′-((4-(((4,6-dichloro-1,3,5-triazin-2-yl)amino)methyl)cyclohexyl)methyl)-N,N-dimethylsulfamide]
[3]
  Ki: 20700 nM

## O=S(=O)(NCCCCCNc1nc2c(s1)CCSc1ccccc1-2)c1c(Cl)cccc1Cl [Example 131, N1-[5-(4,5-Dihydrobenzo[2,3]thiepino[4,5-d][1,3]thiazol-2-ylamino)pentyl]-2,6-dichloro-1-benzenesulfonamide]
[4]
  Ki: 71 nM

## COc1cccc(Br)c1S(=O)(=O)NCCCCCCNc1nc2c(s1)CCSc1ccccc1-2 [Example 147, N1-[6-(4,5-Dihydrobenzo[2,3]thiepino[4,5-d][1,3]thiazol-2-ylamino)hexyl]-2-bromo-6-methoxy-1-benzenesulfonamide]
[4]
  Ki: 7.9 nM
